Source: patent US20250042916A1 (ACONCAGUA BIO, INC., priority 2023, published 2025)

Each molecule was assayed against human calcitonin receptor (CTR) and RAMP3 (AMY3) in COS-7 cells (Homo sapiens, UniProt O60896+P30988) (assay: Amylin Receptor cAMP Assay I). Details: values marked *: Amylin Receptor cAMP Assay I; COS-7/AMY3 cells; read-out: Amylin Receptor cAMP Stimulation Activity: EC50.
Format: cell-based
Excerpt: Amylin Receptor cAMP Assay I
AMYRs are heterodimers of the class B calcitonin (CT) G-protein-coupled receptor (CTR) and receptor activity-modifying proteins (RAMPs). All three RAMPs can interact with the CTR and form AMY1, AMY2, AMY3 with RAMP1, RAMP2 and RAMP3, respectively. Like other class B1 GPCRs, the CT receptor family is canonically coupled to Gs-mediated cAMP production, and measurement of cAMP accumulation has been the primary assay used to determine peptide selectivity and potency.
To optimize functional activity directed toward Gas coupling, COS-7 cells were stably transfected with human calcitonin receptor (CTR) and RAMP3, simultaneously. 100× concentration of compound working solutions were prepared (Agilent Technologies Bravo) with 4-fold serial dilution in 384-well Echo LDV plate (Labcyte, Cat #LP-0200). 100 nL/well 100× concentration of compound working solutions were moved to 384-well white low volume plate (Greiner, Cat #784075) using Labcyte ECHO550. 1×10^5 cells/mL COS-7/CTR or COS-7/AMY3 (HD Biosciences) cell suspensions prepared with assay buffer [DPBS containing 0.5 mM IBMX (Sigma, Cat #15879) and 0.1% BSA (GENVIEW, Cat #FA016-100 g)], 10 μL cell suspensions were added to each well of previous generated assay plate which already contains 100 nL compound at 100× concentration using ThermoFisher Multidrop Combi (1000 cells/well). Seal the plate and incubate at 37° C. with 5% CO2 for 30 min.
After incubation, the cAMP assay signal was generated using cAMP Hi-range Kit (Cisbio). 5 μL cAMP-d2 working solution was added to each well, followed by 5 μL Anti-cAMP antibody-cryptate working solution which was added to each well using ThermoFisher Multidrop Combi. The samples were then incubated at room temperature for 1 hour protected from light. the fluorescence was read at 665 and 615 nm with Reader PerkinElmer EnVision.

Chain of human calcitonin receptor (CTR) and RAMP3 (AMY3) in COS-7 cells (P30988 25-474): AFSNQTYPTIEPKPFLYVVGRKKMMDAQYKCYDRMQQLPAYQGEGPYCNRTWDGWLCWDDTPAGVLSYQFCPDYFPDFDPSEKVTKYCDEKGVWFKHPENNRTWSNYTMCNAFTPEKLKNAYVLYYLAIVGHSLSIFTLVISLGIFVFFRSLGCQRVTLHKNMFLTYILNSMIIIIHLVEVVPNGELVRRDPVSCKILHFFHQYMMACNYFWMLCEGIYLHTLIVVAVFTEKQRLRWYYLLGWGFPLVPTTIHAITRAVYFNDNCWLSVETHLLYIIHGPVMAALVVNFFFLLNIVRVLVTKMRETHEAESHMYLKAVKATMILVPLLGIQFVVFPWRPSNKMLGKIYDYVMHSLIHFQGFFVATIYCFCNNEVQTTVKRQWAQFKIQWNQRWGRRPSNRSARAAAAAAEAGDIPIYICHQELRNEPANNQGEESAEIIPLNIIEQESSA
Chain of human calcitonin receptor (CTR) and RAMP3 (AMY3) in COS-7 cells (O60896 24-148): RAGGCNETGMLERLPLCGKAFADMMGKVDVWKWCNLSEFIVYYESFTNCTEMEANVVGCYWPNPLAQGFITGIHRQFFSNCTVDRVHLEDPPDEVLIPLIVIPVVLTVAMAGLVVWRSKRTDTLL

| EC50 | SMILES |
| --- | --- |
| 84.7 nM | Cc1noc(-c2c(CCc3ccc(F)cc3)nc(CC(C)C)c(C(N)=O)c2-c2ccc(C(=O)N[C@@H]3CCc4ccccc43)s2)n1 [Compound 101, N—[(R)-1-indanyl]-5-{5-carbamoyl-2-[2-(p-fluorophenyl)ethyl]-6-isobutyl-3-(3-methyl-1,2,4-oxadiazol-5-yl)-4-pyridyl}-2-thenamide] |
| 40.2 nM | COc1cc(CNC(=O)c2ccc(-c3c(C(N)=O)c(CC(C)C)nc(CCc4ccc(F)cc4)c3-c3nnc(C)o3)s2)ccc1F [Compound 117, N-[(4-fluoro-3-methoxyphenyl)methyl]-5-{5-carbamoyl-2-[2-(p-fluorophenyl)ethyl]-6-isobutyl-3-(5-methyl-1,3,4-oxadiazol-2-yl)-4-pyridyl}-2-thenamide] |
| 211 nM | Cc1nnc(-c2c(CCc3ccc(F)cc3)nc(CC(C)C)c(C(N)=O)c2-c2ccc(C(=O)N[C@H]3CCc4ccccc43)s2)o1 [Compound 118, (S)-4-(5-((2,3-dihydro-1H-inden-1-yl)carbamoyl)thiophen-2-yl)-6-(4-fluorophenethyl)-2-isobutyl-5-(5-methyl-1,3,4-oxadiazol-2-yl)nicotinamide] |
| 2.7 nM | Cc1nnc(-c2c(CCc3ccc(F)cc3)nc(CC(C)C)c(C(N)=O)c2-c2ccc(C(=O)N[C@@H]3CCc4c(F)cccc43)s2)o1 [Compound 119, (R)-4-(5-((4-fluoro-2,3-dihydro-1H-inden-1-yl)carbamoyl)thiophen-2-yl)-6-(4-fluorophenethyl)-2-isobutyl-5-(5-methyl-1,3,4-oxadiazol-2-yl)nicotinamide] |
| 1.7 nM | Cc1nnc(-c2c(CCc3ccc(F)cc3)nc(CC(C)C)c(C(N)=O)c2-c2ccc(C(=O)N[C@@H]3CCc4cc(F)ccc43)s2)o1 [Compound 120, (R)-4-(5-((5-fluoro-2,3-dihydro-1H-inden-1-yl)carbamoyl)thiophen-2-yl)-6-(4-fluorophenethyl)-2-isobutyl-5-(5-methyl-1,3,4-oxadiazol-2-yl)nicotinamide] |
| 1 nM | Cc1nnc(-c2c(CCc3ccc(F)cc3)nc(CC(C)C)c(C(N)=O)c2-c2ccc(C(=O)N[C@@H]3CCc4ccc(F)cc43)s2)o1 [Compound 121, (R)-4-(5-((6-fluoro-2,3-dihydro-1H-inden-1-yl)carbamoyl)thiophen-2-yl)-6-(4-fluorophenethyl)-2-isobutyl-5-(5-methyl-1,3,4-oxadiazol-2-yl)nicotinamide] |
| 37.2 nM | Cc1nnc(-c2c(CCc3ccc(F)cc3)nc(CC(C)C)c(C(N)=O)c2-c2ccc(C(=O)N[C@@H]3CCc4ncccc43)s2)o1 [Compound 123, (R)-4-(5-((6,7-dihydro-5H-cyclopenta[b]pyridin-5-yl)carbamoyl)thiophen-2-yl)-6-(4-fluorophenethyl)-2-isobutyl-5-(5-methyl-1,3,4-oxadiazol-2-yl)nicotinamide] |
| 35.8 nM | Cc1nnc(-c2c(CCc3ccc(F)cc3)nc(CC(C)C)c(C(N)=O)c2-c2ccc(C(=O)N[C@H]3CCc4ncccc43)s2)o1 [Compound 124, (S)-4-(5-((6,7-dihydro-5H-cyclopenta[b]pyridin-5-yl)carbamoyl)thiophen-2-yl)-6-(4-fluorophenethyl)-2-isobutyl-5-(5-methyl-1,3,4-oxadiazol-2-yl)nicotinamide] |

More lines, now with the values behind:

| SMILES | EC50 |
| --- | --- |
| Cc1noc(-c2c(CCc3ccc(F)cc3)nc(CC(C)C)c(C(N)=O)c2-c2ccc(C(=O)NCc3ccc(F)c(F)c3)s2)n1 [Compound 102, N-(3,4-difluorophenyl)methyl-5-{5-carbamoyl-2-[2-(p-fluorophenyl)ethyl]-6-isobutyl-3-(3-methyl-1,2,4-oxadiazol-5-yl)-4-pyridyl}-2-thenamide] | 85.9 nM |
| CC(C)Cc1nc(CCc2ccc(F)cc2)c(-c2nc(C(C)C)no2)c(-c2ccc(C(=O)NCc3ccc(F)c(F)c3)s2)c1C(N)=O [Compound 103, N-(3,4-difluorophenyl)methyl-5-{5-carbamoyl-2-[2-(p-fluorophenyl)ethyl]-6-isobutyl-3-(3-isopropyl-1,2,4-oxadiazol-5-yl)-4-pyridyl}-2-thenamide] | 314 nM |
| Cc1noc(-c2c(CCc3ccc(F)cc3)nc(CC(C)C)c(C(N)=O)c2-c2ccc(-c3cn(Cc4ccc(F)c(F)c4)nn3)s2)n1 [Compound 104, 4-(5-{1-[(3,4-difluorophenyl)methyl]-1H-1,2,3-triazol-4-yl}-2-thienyl)-6-[2-(p-fluorophenyl)ethyl]-2-isobutyl-5-(3-methyl-1,2,4-oxadiazol-5-yl)nicotinamide] | 444 nM |
| CC(C)Cc1nc(CCc2ccc(F)cc2)c(-c2nc(C(F)(F)F)no2)c(-c2ccc(C(=O)NCc3ccc(F)c(F)c3)s2)c1C(N)=O [Compound 105, N-(3,4-difluorophenyl)methyl-5-{5-carbamoyl-2-[2-(p-fluorophenyl)ethyl]-6-isobutyl-3-[3-(trifluoromethyl)-1,2,4-oxadiazol-5-yl]-4-pyridyl}-2-thenamide] | 591 nM |
| Cc1nnc(-c2c(CCCC(C)C)nc(CC(C)C)c(C(N)=O)c2-c2ccc(C(=O)NCc3ccc(F)c(F)c3)s2)o1 [Compound 108, 4-(5-((3,4-difluorobenzyl)carbamoyl)thiophen-2-yl)-2-isobutyl-5-(5-methyl-1,3,4-oxadiazol-2-yl)-6-(4-methylpentyl)nicotinamide] | 70.7 nM |
| Cc1nnc(-c2c(CCC3CCCCC3)nc(CC(C)C)c(C(N)=O)c2-c2ccc(C(=O)NCc3ccc(F)c(F)c3)s2)o1 [Compound 109, 6-(2-cyclohexylethyl)-4-(5-((3,4-difluorobenzyl)carbamoyl)thiophen-2-yl)-2-isobutyl-5-(5-methyl-1,3,4-oxadiazol-2-yl)nicotinamide] | 20 nM |
| Cc1nnc(-c2c(Cc3ccc(F)cc3)nc(CC(C)C)c(C(N)=O)c2-c2ccc(C(=O)NCc3ccc(F)c(F)c3)s2)o1 [Compound 110, 4-(5-((3,4-difluorobenzyl)carbamoyl)thiophen-2-yl)-6-(4-fluorobenzyl)-2-isobutyl-5-(5-methyl-1,3,4-oxadiazol-2-yl)nicotinamide] | 74.1 nM |
| Cc1nnc(-c2c(CC(C)C)nc(CC(C)C)c(C(N)=O)c2-c2ccc(C(=O)NCc3ccc(F)c(F)c3)s2)o1 [Compound 111, 4-(5-((3,4-difluorobenzyl)carbamoyl)thiophen-2-yl)-2,6-diisobutyl-5-(5-methyl-1,3,4-oxadiazol-2-yl)nicotinamide] | 650 nM |
| CCc1nc(CC(C)C)c(C(N)=O)c(-c2ccc(C(=O)NCc3ccc(F)c(F)c3)s2)c1-c1nnc(C)o1 [Compound 112, 4-[5-[(3,4-difluorophenyl)methylcarbamoyl]-2-thienyl]-6-ethyl-2-isobutyl-5-(5-methyl-1,3,4-oxadiazol-2-yl)pyridine-3-carboxamide] | > 11400 nM |
| COc1cccc(CNC(=O)c2ccc(-c3c(C(N)=O)c(CC(C)C)nc(CCc4ccc(F)cc4)c3-c3nnc(C)o3)s2)c1 [Compound 113, N-(m-methoxyphenyl)methyl-5-{5-carbamoyl-2-[2-(p-fluorophenyl)ethyl]-6-isobutyl-3-(5-methyl-1,3,4-oxadiazol-2-yl)-4-pyridyl}-2-thenamide] | 6.2 nM |
| COc1ccc(CNC(=O)c2ccc(-c3c(C(N)=O)c(CC(C)C)nc(CCc4ccc(F)cc4)c3-c3nnc(C)o3)s2)cc1 [Compound 114, N-(p-methoxyphenyl)methyl-5-{5-carbamoyl-2-[2-(p-fluorophenyl)ethyl]-6-isobutyl-3-(5-methyl-1,3,4-oxadiazol-2-yl)-4-pyridyl}-2-thenamide] | 323 nM |
| Cc1nnc(-c2c(CCc3ccc(F)cc3)nc(CC(C)C)c(C(N)=O)c2-c2ccc(C(=O)NCc3ccccc3)s2)o1 [Compound 115, N-benzyl-5-{5-carbamoyl-2-[2-(p-fluorophenyl)ethyl]-6-isobutyl-3-(5-methyl-1,3,4-oxadiazol-2-yl)-4-pyridyl}-2-thenamide] | 85 nM |
| COc1cc(F)cc(CNC(=O)c2ccc(-c3c(C(N)=O)c(CC(C)C)nc(CCc4ccc(F)cc4)c3-c3nnc(C)o3)s2)c1 [Compound 116, N-[(3-fluoro-5-methoxyphenyl)methyl]-5-{5-carbamoyl-2-[2-(p-fluorophenyl)ethyl]-6-isobutyl-3-(5-methyl-1,3,4-oxadiazol-2-yl)-4-pyridyl}-2-thenamide] | 13.9 nM |
| Cc1nnc(-c2c(CCc3ccc(F)cc3)nc(CC(C)C)c(C(N)=O)c2-c2ncc(C(=O)NCc3ccc(F)c(F)c3)s2)o1 [Compound 125, N-(3,4-difluorophenyl)methyl-2-{5-carbamoyl-2-[2-(p-fluorophenyl)ethyl]-6-isobutyl-3-(5-methyl-1,3,4-oxadiazol-2-yl)-4-pyridyl}-1,3-thiazole-5-carboxamide] | 212 nM |
| Cc1nnc(-c2c(CCc3ccc(F)cc3)nc(CC(C)C)c(C(N)=O)c2-c2ccc(C(=O)NCc3ccc(F)c(F)c3)cc2)o1 [Compound 126, 4-(p-{[(3,4-difluorophenyl)methyl]carbamoyl}phenyl)-6-[2-(p-fluorophenyl)ethyl]-2-isobutyl-5-(5-methyl-1,3,4-oxadiazol-2-yl)nicotinamide] | 162 nM |
